This note sets out measurements from patent US8389468B2, “Approach to the treatment of compartment syndrome” (Lantmannen AS-Faktor AB, priority 2006, dated 2013).

Experiment [1] relates to HSV-1 infected rats. The experiment can be described thus: Intracranial pressure (ICP) and neurological symptoms in HSV-1 infected rats, fibre optic pressure sensor. It counts as in vivo, rat. As to the method: Adult rats were infected by having a solution of the Herpes Simplex virus type 1 (HSV-1; strain 2762, batch 041028; 1.7×10^7 PFU/mL; 25 pL) instilled in their right nostril. One group of animals (n=6) received 10 min after the infection 25 pL (10 pg) of AF-16 in their right nostril, and had thereafter the same dose of AF-16 instilled twice daily, every morning at 8 AM and every night at 6 PM, until the experiment was terminated on day 6. Additional HSV-1 infected rats (n=6) received in the nose at the same time intervals 25 pL of the vehicle, phosphate buffered saline (PBS). On day 6, the animals were anaesthetized, a surgical incision made through the skin on the head, and the skull bone freed from periostium and connective tissue. A hole with a diameter of about 1 mm was drilled through the right parietal bone and a miniature pressure sensor inserted 3-5 mm into the brain or into the lateral ventricle. A fibre optic pressure measure system (Samba System 3200 & Samba Preclin 420 sensor; Samba Sensors AB, V Frolunda, Sweden) with a very small diameter, ve. 0.4 mm, was used. […] HSV-1 infected rats treated with just the vehicle were measured to have as high pressures as up to 30-45 mm Hg (FIG. 2a), considerably affect the animals as reflected by symptoms of neurological dysfunction of increasing severity. In contrast, HSV-1 infected rats treated from the time of infection with AF-16 twice daily had almost normal ICP, 8-14 mm Hg (FIG. 2 b).
Additional HSV-1 infected animals with distinctly overt symptoms were as well treated with 10 or 25 pg AF-16 intranasally, starting on day 5, 6 or 7, i.e. after having had the vehicle during the previous days. […] Thus, non of the acutely AF-16 treated rats had any persistent signs of deleterious ICP and thus no CS developed. […] That is seen in the mentioned figure (FIG. 5 a) as there is no red staining of the right half on the figure. However, treatment with 10 or 25 pg AF-16 intranasally turned the picture in HSV-1 infected rats as in the normal, non-infected ones. […] Thereby the outflow of CSF was restored and the ICP turned normal.

The subject of experiment [2] is HSV-1 infected rats. The experiment can be described thus: Survival of rats infected with HSV-1. Conditions: 10 pg or 25 pg AF-16 intranasally twice daily. It counts as in vivo, rat. Here is the method: FIG. 3: Survival frequency of rats infected with HSV-1 by the administration of a virus solution in the right nostril on day 0. Half of the rats (n=15) were treated twice daily with 1 μg AF-16 (upper line), a peptide composed of the amino acids VCHSKTRSNPENNVGL (SEQ ID NO: 1), twice daily intranasally, while the other half received just the vehicle after the HSV-1 infection (lower line). Of those treated with just the vehicle only 10% survived day 14, contrasting to the 60% of those treated with AF-16.
Therefore, rats were infected by instillation in their right nostril of 25 μL of a solution of the herpes simplex virus type 1 (HSV-1; strain 2762, batch 041028; 1.7×10^7 PFU/mL). Half of the animals received 10 min later 25 μL (1, 10 or 25 pg) of AF-16 in their right nostril, and had thereafter the same dose of AF-16 instilled every morning at 8 AM and every night at 6 PM until the experiment was terminated on day 14. The other half of the group of HSV-1 infected rats received 25 μL of the vehicle, PBS, at the same time schedule. The animals were several times daily closely watched for signs of behavioral dysfunction or general sickness. If so, the animals were sacrificed. The FIG. 3 is illustrating the survival rates for the animals, all being infected with HSV-1. […]

The test system of experiment [3] is flotillin-1 and aquaporin 1 immunoreactivities in the choroid plexus. The experiment can be described thus: Immunohistochemistry of flotillin-1 and aquaporin 1 in choroid plexus of HSV-1 infected rats. It counts as in vivo, rat. The conditions noted are these: hardly demonstrable with vehicle. As to the method:
Therefore, rats were infected by instillation in their right nostril of 25 μL of a solution of the herpes simplex virus type 1 (HSV-1; strain 2762, batch 041028; 1.7×10^7 PFU/mL). Half of the animals received 10 min later 25 μL (1, 10 or 25 pg) of AF-16 in their right nostril, and had thereafter the same dose of AF-16 instilled every morning at 8 AM and every night at 6 PM until the experiment was terminated on day 14. The other half of the group of HSV-1 infected rats received 25 μL of the vehicle, PBS, at the same time schedule. The animals were several times daily closely watched for signs of behavioral dysfunction or general sickness. If so, the animals were sacrificed. The FIG. 3 is illustrating the survival rates for the animals, all being infected with HSV-1. […] In contrast, the HSV-1 infected rats, receiving just the vehicle (n=15), died to a large extent and only 10% were still surviving at the end of the test period, day 14 (FIG. 3). All of the vehicle treated, infected rats developed signs of neurological dysfunctions. […] It ought to be stressed that the extent and severity of the damage were depending on the duration of the exposure and to the level of elevated ICP as well as to the survival time. […]

Experiment [4] concerns ICP after subarachnoidally deposited blood. The experiment can be described thus: Cerebral CS induced by autologous blood in the subarachnoid space, ICP. It counts as in vivo, Sprague-Dawley rats. From the text:
A different type of cerebral CS was induced by the injection of […] whole blood in the subarachnoid space, a procedure known from the literature to result in the development of brain oedema and elevated ICP. Anaesthetized adult rats had 50-350 pL heparinzed autologous blood deposited in the subarachnoid space through a small hole drilled in the occipital bone or by injection into the cistern magna through the atlanto-occipital membrane. Holes drilled in a skull bone were eventually plugged with SuperBond@ glue. Such treatments with subarachnoidally deposited blood increased the ICP, inducing the development of a CS in a day or within a week, the exact time depending on the conditions and amount of blood deposited, in agreement with reports in the medical literature. In our experiments, injection of 0.2-0.3 mL autologous, heparinized blood in the cisterna magna in adult Sprague-Dawley rats resulted within 1-3 days in an elevation of the ICP to 13 to 30 mm Hg, as assessed with an implanted miniature pressure light guided probe (Samba System 3200 & Samba Preclin 420 sensor; Samba Sensors AB, Gruvgatan 6, SE 42130 V. Frolunda, Sweden). The ICP in normal adult rats, either non-treated or having had phosphate buffered saline (PBS) injected instead, was 6-9 mm Hg. […] This means that AF-16 is abolishing and, in case of already established cerebral CS, reducing its severity. The prompt response to AF-16 was decisive for the beneficial effect exerted by AF-16.

Where [5] appears, read: overt symptoms, 10 or 25 pg intranasally starting on day 5, 6 or 7.

VCHSKTRSNPENNVGL [AF-16]: the “intracranial pressure (ICP)” value with HSV-1 infected rats [1] (HSV-1 infected rats, 10 pg AF-16 intranasally twice daily from time of infection, day 6, normal rats 4-8, vehicle 30-45) is listed as 8-14 mm Hg. Also, the “development of neurological dysfunctions” value with HSV-1 infected rats [1] (intranasal treatment twice daily from infection) is “prevented the development of neurological dysfunctions”. For the same sequence, in the experiment on HSV-1 infected rats [1] (setting [5]), the “onset and duration of pressure reducing effect” value is “detectable within an hour and lasted for several hours”; the “symptoms of neurological dysfunctions after acute treatment” value was “turned reduced within half an hour and were not demonstrable any longer after one hour”. Besides, in the experiment with HSV-1 infected rats [2], the “signs of neurological dysfunction” value is “none showed any signs of neurological dysfunction” and the “survival at day 14” value is “all the infected animals survived”. Further, in experiment [3], the “aquaporin 1 immunoreactivity in the choroid plexus” value was “readily demonstrable” and the “flotillin-1 immunoreactivity in the choroid plexus” value is “readily demonstrable”. The ICP after treatment entry in experiment [4] (25 pg AF-16 intranasally twice daily) is “almost normal levels”. The “brain, behavioral and motor function” value in experiment [4] (25 pg AF-16 intranasally twice daily, vs vehicle) was “neither signs of impaired brain function nor any gross obvious impairment of behavioral or motor functions”. Besides, the “time for elevated ICP to turn to almost normal levels” value in experiment [4] (25 pg AF-16 intranasally twice daily, elevated ICP 13 to 30 mm Hg, normal 6-9 mm Hg) was 1 to 2 h. The “extent and severity of brain damage” value in experiment [4] (vs vehicle PBS) is “reduced the extent and severity of the brain damage”.
